Test results taken from US20220160686A1, “MACROCYCLIC AZOLOPYRIDINE DERIVATIVES AS EED AND PRC2 MODULATORS” (Fulcrum Therapeutics, Inc., priority 2019, published 2022).

What was measured:
[1] = target: EZH2/PRC2 complex (Homo sapiens, UniProt O75530); experiment: Histone methyltransferase assay (radioisotope-based HotSpot); type: biochemical; conditions: EZH2/PRC2 complex 10 nM, core histone substrate 0.05 mg/ml, 3H-SAM 1 μM; read-out: IC50, inhibitory effects on the HMT enzyme
Procedure: Effect of compounds of the present disclosure on EZH2/PRC2 complex methyltransferase functional activity was measured using the radioisotope-based HotSpot assay described by Horiuchi, K. Y., et al. Assay Drug Dev Technol. 11(4):227-36 (2013). Briefly, compounds were prepared in a 10-point 3-fold serial dilution in DMSO from a 10 mM stock in ECHO qualified plate using Assist Plus (Integra Biosciences) liquid handler. […] Nanoliter quantities of each compound's concentration series were transferred into the enzyme/substrate mix using (Echo 550, LabCyte Inc. Sunnyvale, Calif.) acoustic dispenser and pre-incubated for 20 min at room temperature. The methylation reaction was initiated by the addition of 1 μl of 5 μM S-Adenosyl-L-[methyl-^3H]methionine (^3H-SAM) and incubated at 30° C. for 1 h. The final concentration of the EZH2/PRC2 complex, core histone substrate and ^3H-SAM were 10 nM, 0.05 mg/ml, and 1 μM respectively. The % activity of test samples were calculated with reference to positive (no compound) and negative (no EZH2/PRC2) controls on the plate using Excel (Microsoft). The resulting values were exported to Prism (GraphPad software) to generate concentration response curves and IC50 values using the four-parameter logistic equation.

[2] = target: T1, biotinylated AVI-tagged EED (76-441) (Homo sapiens, UniProt O75530); experiment: EED binding SPR assay; conditions: 1:1 binding model; read-out: KD, equilibrium dissociation constant as measured by surface plasmon resonance (SPR)
T1 construct: GST (N, cleaved yes); made in house; host or cells: E. coli BL21(DE3), co-expressed with pGro7
Procedure, shortened: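 Biotinylated AVI-EED(76-441) from E. coli was captured on Biotin CAPture chips (2200–2400 RU) in 10 mM HEPES pH 7.4, 150 mM NaCl, 0.05% Tween 20 and 2% DMSO. Compounds were run at 7 concentrations (3-fold dilutions) with 90 s association and 180 s dissociation, chip at 25 °C. Data were fitted to a 1:1 binding model.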

T1 sequence (O75530 76-441 limits assumed): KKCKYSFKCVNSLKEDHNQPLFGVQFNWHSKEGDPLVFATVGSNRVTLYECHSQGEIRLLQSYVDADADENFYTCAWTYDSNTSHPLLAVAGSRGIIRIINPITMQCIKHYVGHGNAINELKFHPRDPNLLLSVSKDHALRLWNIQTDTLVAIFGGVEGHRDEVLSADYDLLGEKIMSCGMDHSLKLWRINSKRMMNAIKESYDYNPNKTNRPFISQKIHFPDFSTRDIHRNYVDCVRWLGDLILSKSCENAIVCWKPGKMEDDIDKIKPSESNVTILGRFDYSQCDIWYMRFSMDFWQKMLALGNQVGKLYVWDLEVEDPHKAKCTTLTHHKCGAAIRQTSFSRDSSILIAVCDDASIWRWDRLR
Chain of EZH2/PRC2 complex (O75530 whole entry): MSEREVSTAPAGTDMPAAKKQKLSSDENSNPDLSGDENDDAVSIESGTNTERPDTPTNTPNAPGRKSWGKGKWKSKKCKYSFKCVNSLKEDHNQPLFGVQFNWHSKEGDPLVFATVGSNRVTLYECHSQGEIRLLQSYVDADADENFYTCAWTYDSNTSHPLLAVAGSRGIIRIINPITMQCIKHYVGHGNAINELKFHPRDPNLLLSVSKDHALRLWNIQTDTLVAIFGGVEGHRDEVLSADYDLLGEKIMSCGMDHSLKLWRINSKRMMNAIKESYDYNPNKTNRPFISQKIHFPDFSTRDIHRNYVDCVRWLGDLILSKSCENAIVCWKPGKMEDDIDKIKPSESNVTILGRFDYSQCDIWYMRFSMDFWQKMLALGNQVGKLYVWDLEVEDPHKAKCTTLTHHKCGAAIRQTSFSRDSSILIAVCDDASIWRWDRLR
Chain of EZH2/PRC2 complex (Q15910 whole entry partner): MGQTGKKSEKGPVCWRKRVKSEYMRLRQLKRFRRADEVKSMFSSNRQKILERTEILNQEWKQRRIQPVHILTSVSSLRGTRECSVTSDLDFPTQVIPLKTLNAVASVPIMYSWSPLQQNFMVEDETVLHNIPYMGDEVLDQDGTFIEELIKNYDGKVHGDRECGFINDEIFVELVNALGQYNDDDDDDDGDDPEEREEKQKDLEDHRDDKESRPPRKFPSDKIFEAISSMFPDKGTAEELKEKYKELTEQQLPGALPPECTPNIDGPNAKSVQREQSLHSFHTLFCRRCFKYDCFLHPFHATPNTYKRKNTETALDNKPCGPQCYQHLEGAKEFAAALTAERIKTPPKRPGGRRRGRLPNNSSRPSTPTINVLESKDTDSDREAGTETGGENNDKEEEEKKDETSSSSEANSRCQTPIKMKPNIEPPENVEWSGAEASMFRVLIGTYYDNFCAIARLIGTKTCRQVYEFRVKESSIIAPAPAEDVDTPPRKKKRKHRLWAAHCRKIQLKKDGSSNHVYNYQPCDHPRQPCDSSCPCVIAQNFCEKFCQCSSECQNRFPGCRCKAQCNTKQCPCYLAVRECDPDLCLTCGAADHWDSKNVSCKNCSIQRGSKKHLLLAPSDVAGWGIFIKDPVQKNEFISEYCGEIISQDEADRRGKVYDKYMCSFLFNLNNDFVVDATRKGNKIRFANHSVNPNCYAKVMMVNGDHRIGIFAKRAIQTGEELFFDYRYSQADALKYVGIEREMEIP
Chain of EZH2/PRC2 complex (Q15022 whole entry partner): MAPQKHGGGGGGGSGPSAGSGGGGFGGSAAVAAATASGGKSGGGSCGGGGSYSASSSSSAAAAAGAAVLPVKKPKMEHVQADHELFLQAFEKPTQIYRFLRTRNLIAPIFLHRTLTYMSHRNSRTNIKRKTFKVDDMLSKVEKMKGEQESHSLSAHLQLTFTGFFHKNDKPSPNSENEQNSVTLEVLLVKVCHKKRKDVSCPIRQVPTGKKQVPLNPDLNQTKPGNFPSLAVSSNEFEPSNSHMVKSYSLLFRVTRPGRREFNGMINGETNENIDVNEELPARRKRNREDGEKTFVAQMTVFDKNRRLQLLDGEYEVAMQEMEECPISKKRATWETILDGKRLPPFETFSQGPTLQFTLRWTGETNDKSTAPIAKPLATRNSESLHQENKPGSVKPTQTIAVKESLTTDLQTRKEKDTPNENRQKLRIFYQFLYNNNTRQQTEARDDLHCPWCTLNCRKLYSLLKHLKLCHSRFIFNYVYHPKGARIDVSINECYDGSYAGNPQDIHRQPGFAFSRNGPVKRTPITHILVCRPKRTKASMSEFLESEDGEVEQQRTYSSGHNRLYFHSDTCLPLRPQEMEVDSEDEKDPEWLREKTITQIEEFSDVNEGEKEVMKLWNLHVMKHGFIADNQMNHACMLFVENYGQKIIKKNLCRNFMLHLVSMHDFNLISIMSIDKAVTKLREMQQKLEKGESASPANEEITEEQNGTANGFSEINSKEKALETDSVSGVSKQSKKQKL

SMILES | IC50 [1] | Kd [2]
Cc1ncccc1-c1cc2c(n3cnnc13)NCc1cccc3c1[C@H](CO3)CO2 [Compound 1, (15R)-10-(2-methyl-3-pyridyl)-13,17-dioxa-3,5,7,8-tetrazapentacyclo[13.6.1.04,12.05,9.018,22] docosa-1(22),4(12),6,8,10,18,20-heptaene] | < 25 nM | < 2.5 nM
CC(=O)N1CCC(c2cc3c(n4cnnc24)NCc2cccc4c2[C@@H](CO4)CO3)CC1 [Compound 3, (S)-1-(4-(7a,8,13,14-tetrahydro-7H-[1,2,4]triazolo[4′,3′:1,6]pyrido[3,2-b]benzofuro[4,3-fg][1,4]oxazonin-4-yl)piperidin-1-yl)ethan-1-one] | < 25 nM | < 2.5 nM
CC(=O)N1CCC(c2cc3c(n4cnnc24)NCc2c(F)cccc2CCO3)CC1 [Compound 4, 1-(4-(12-fluoro-7,8,13,14-tetrahydro-[1,2,4]triazolo[4′,3′:1,6]pyrido[3,2-b]benzo[f][1,4]oxazonin-4-yl)piperidin-1-yl)ethan-1-one] | < 25 nM | 10 to 50 nM
Cc1ncccc1-c1cc2c(n3cnnc13)NCc1c(F)cccc1CCO2 [Compound 5, 12-fluoro-4-(2-methylpyridin-3-yl)-7,8,13,14-tetrahydro-[1,2,4]triazolo[4′,3′:1,6]pyrido[3,2-b]benzo[f][1,4]oxazonine] | 25 to 50 nM | 5 to 10 nM
Cc1ncccc1-c1cc2c(n3cnnc13)NCc1c(F)cccc1COC2 [Compound 6, 12-fluoro-4-(2-methylpyridin-3-yl)-6,8,13,14-tetrahydro-[1,2,4]triazolo[4′,3′:1,6]pyrido[3,2-c]benzo[g][1,5]oxazonine] | > 500 nM | > 50 nM
Cn1cc(Cc2cc3c(n4cnnc24)NCc2cccc4c2[C@@H](CO4)CO3)cn1 [Compound 7, (S)-4-((1-methyl-1H-pyrazol-4-yl)methyl)-7a,8,13,14-tetrahydro-7H-[1,2,4]triazolo[4′,3′:1,6]pyrido[3,2-b]benzofuro[4,3-fg][1,4]oxazonine] | < 25 nM | 10 to 50 nM
Cn1cc(Cc2cc3c(n4cnnc24)NCc2c(F)ccc4c2[C@@H](CO4)CO3)cn1 [Compound 10, (S)-12-fluoro-4-((1-methyl-1H-pyrazol-4-yl)methyl)-7a,8,13,14-tetrahydro-7H-[1,2,4]triazolo[4′,3′:1,6]pyrido[3,2-b]benzofuro[4,3-fg][1,4]oxazonine] | < 25 nM | 5 to 10 nM
c1cc2c3c(c1)OC[C@H]3COc1ccc3nncn3c1NC2 [Compound 11, (S)-7a,8,13,14-tetrahydro-7H-[1,2,4]triazolo[4′,3′:1,6]pyrido[3,2-b]benzofuro[4,3-fg][1,4]oxazonine] | 100 to 500 nM | > 50 nM
Fc1ccc2c3c1CNc1c(cc(C4COC4)c4nncn14)OC[C@@H]3CO2 [Compound 12, (S)-12-fluoro-4-(oxetan-3-yl)-7a,8,13,14-tetrahydro-7H-[1,2,4]triazolo[4′,3′:1,6]pyrido[3,2-b]benzofuro[4,3-fg][1,4]oxazonine] | < 25 nM | 2.5 to 5 nM
Cc1ncc(-c2cc3c(n4cnnc24)NCc2c(F)ccc4c2[C@@H](CO4)CO3)c(C)n1 [Compound 13, (S)-4-(2,4-dimethylpyrimidin-5-yl)-12-fluoro-7a,8,13,14-tetrahydro-7H-[1,2,4]triazolo[4′,3′:1,6]pyrido[3,2-b]benzofuro[4,3-fg][1,4]oxazonine] | < 25 nM | < 2.5 nM
Cc1ncc(-c2cc3c(n4cnnc24)NCc2c(F)cccc2CCO3)c(C)n1 [Compound 14, 4-(2,4-dimethylpyrimidin-5-yl)-12-fluoro-7,8,13,14-tetrahydro-[1,2,4]triazolo[4′,3′:1,6]pyrido[3,2-b]benzo[f][1,4]oxazonine] | 50 to 100 nM | 10 to 50 nM
Cc1cn(-c2cc3c(n4cnnc24)NCc2c(F)ccc4c2[C@@H](CO4)CO3)cn1 [Compound 15, (S)-12-fluoro-4-(4-methyl-1H-imidazol-1-yl)-7a,8,13,14-tetrahydro-7H-[1,2,4]triazolo[4′,3′:1,6]pyrido[3,2-b]benzofuro[4,3-fg][1,4]oxazonine] | < 25 nM | < 2.5 nM
COC(=O)N1CCC(c2cc3c(n4cnnc24)NCc2c(F)ccc4c2C(CO4)CO3)CC1 [Compound 16, methyl (S)-4-(12-fluoro-7a,8,13,14-tetrahydro-7H-[1,2,4]triazolo[4′,3′:1,6]pyrido[3,2-b]benzofuro[4,3-fg][1,4]oxazonin-4-yl)piperidine-1-carboxylate] | < 25 nM | < 2.5 nM
Fc1cncnc1-c1cc2c(n3cnnc13)NCc1c(F)ccc3c1[C@@H](CO3)CO2 [Compound 164, (S)-12-fluoro-4-(5-fluoropyrimidin-4-yl)-7a,8,13,14-tetrahydro-7H-[1,2,4]triazolo[4′,3′:1,6]pyrido[3,2-b]benzofuro[4,3-fg][1,4]oxazonine] | < 25 nM | < 2.5 nM
Fc1ccc2c3c1CNc1c(cc(Br)c4nncn14)OC[C@@H]3CO2 [Compound 165, (S)-4-bromo-12-fluoro-7a,8,13,14-tetrahydro-7H-[1,2,4]triazolo[4′,3′:1,6]pyrido[3,2-b]benzofuro[4,3-fg][1,4]oxazonine] | < 25 nM | 10 to 50 nM
Cn1nc(OC(F)F)cc1-c1cc2c(n3cnnc13)NCc1c(F)ccc3c1[C@@H](CO3)CO2 [Compound 167, (S)-4-(3-(difluoromethoxy)-1-methyl-1H-pyrazol-5-yl)-12-fluoro-7a,8,13,14-tetrahydro-7H-[1,2,4]triazolo[4′,3′:1,6]pyrido[3,2-b]benzofuro[4,3-fg][1,4]oxazonine] | < 25 nM | < 2.5 nM
Cn1nc(F)cc1-c1cc2c(n3cnnc13)NCc1c(F)ccc3c1[C@@H](CO3)CO2 [Compound 168, (S)-12-fluoro-4-(3-fluoro-1-methyl-1H-pyrazol-5-yl)-7a,8,13,14-tetrahydro-7H-[1,2,4]triazolo[4′,3′:1,6]pyrido[3,2-b]benzofuro[4,3-fg][1,4]oxazonine] | < 25 nM | < 2.5 nM
Cn1nc(C(C)(C)C#N)cc1-c1cc2c(n3cnnc13)NCc1c(F)ccc3c1[C@@H](CO3)CO2 [Compound 169, (S)-2-(5-(12-fluoro-7a,8,13,14-tetrahydro-7H-[1,2,4]triazolo[4′,3′:1,6]pyrido[3,2-b]benzofuro[4,3-fg][1,4]oxazonin-4-yl)-1-methyl-1H-pyrazol-3-yl)-2-methylpropanenitrile] | < 25 nM | < 2.5 nM
Cn1nccc1-c1cc2c(n3cc(C#N)nc13)NCc1c(F)ccc3c1[C@@H](CO3)CO2 [Compound 172, (S)-5-fluoro-12-(1-methyl-1H-pyrazol-5-yl)-6,7,15,15a-tetrahydro-1H-benzofuro[4,3-fg]imidazo[r,2′:1,6]pyrido[3,2-b][1,4]oxazonine-10-carbonitrile] | < 25 nM | < 2.5 nM
Cn1nccc1-c1cc2c(n3cc(C(N)=O)nc13)NCc1c(F)ccc3c1[C@@H](CO3)CO2 [Compound 175, (S)-5-fluoro-12-(1-methyl-1H-pyrazol-5-yl)-6,7,15,15a-tetrahydro-1H-benzofuro[4,3-fg]imidazo[r,2′:1,6]pyrido[3,2-b][1,4]oxazonine-10-carboxamide] | < 25 nM | < 2.5 nM
